# Laboratory results as given in a melting point compilation (Tetko et al.; mined from patent text by program, amines drawn as free bases though some values may be those of a salt).
row,SMILES,melting point
1,COC(=O)c1cccc(C=Cc2nc3cc(F)ccc3s2)c1,172 to 173 °C
2,O=C(O)CCCCCCCCCNS(=O)(=O)c1ccc(Cl)cc1,192 to 194 °C
3,COC(=O)CN1C(=O)C2=C(c3ccc(Cl)cc3C(c3ccccc3Cl)=NC2)C1C (stereo not drawn),221 to 223 °C
4,CCS(=O)CCC(=O)NNC(=O)N1Cc2ccccc2Oc2ccc(Cl)cc21 (stereo not drawn),185 to 188 °C
5,COc1cc(OC)c(C2=NC(NC(=O)c3cc4ccccc4[nH]3)C(=O)N(C)c3ccccc32)c(OC)c1 (stereo not drawn),297 °C
6,Nc1nccc2cc(CNC(=O)C3CCCN3)ccc12 (stereo not drawn),140 to 142 °C
7,CC(=N)NN(C)C(=O)OC(C)(C)C,187 to 189 °C
8,Cc1cc(C)c(S(=O)(=O)OC[C@@H]2C[C@@H]2COS(=O)(=O)c2c(C)cc(C)cc2C)c(C)c1,240 °C
9,CCCc1nc(Sc2ccc(O)cc2)c(C=O)n1Cc1cc2c(cc1Cl)OCO2,242 °C
10,COC1=C(C)C(C)(F)C(C(=O)c2ccccc2)C=C1 (stereo not drawn),59 to 61 °C
11,CCCCCCCOC(=O)CON=c1c2nccc3cccc(c32)n2cccc12,98 °C
12,COc1ccc2c(c1)C13CCCOC1(C)C(C2)N(C(=O)C1CCC1)CC3 (stereo not drawn),166 to 167 °C
13,Cn1cc(OS(C)(=O)=O)c(=O)c2cccc(F)c21,207 to 209 °C
14,CN1C2=NCCN2C(=O)c2cccnc21,168 to 171 °C
15,C=C(CCC)C(=O)c1ccc(OCC(=O)O)c(Cl)c1Cl,111 to 113 °C
16,CCCCCCCNC(=O)N(C)c1cccc(-c2ccc(CCC(=O)O)cc2OCCC(C)C)c1,60 to 62 °C
17,COc1cccc(NC(=S)Nc2cscc2C)c1N,148 to 153 °C
18,COC(=O)C(C)Oc1ccc(NC(=O)CO)cc1 (stereo not drawn),111 to 113 °C
19,Cc1cc(Oc2ccc(C#N)cc2C(F)(F)F)n[nH]1,123 to 125 °C
20,CC1(C)OCc2cc(CCNC(=O)C(F)(F)F)ccc2O1,91 to 93 °C
21,CNC(=O)Nc1ccc(C2=NN(C(=O)NC)C(C)Cc3cc4c(cc32)OCO4)cc1 (stereo not drawn),181 to 183 °C
22,CC(C)C(=O)NCCC1C=CC=CC1=O (stereo not drawn),88 to 93 °C
23,CC(C)(C)OC(=O)N1C[C@H](O)C[C@H]1C(N)=O,146 to 148 °C
24,COC(C)=CC(=O)Nc1cccc(N(C)C(N)=O)c1,166 °C

row,SMILES,melting point
1,NC1=NS(=O)N=C1NCCSCc1ccc(CN2CCCCC2)o1 (stereo not drawn),161 to 163 °C
2,O=C(O)c1cn(C2CC2)c2c(F)c(N3CCOC(CN4CCCCC4)C3)c(F)cc2c1=O (stereo not drawn),160 to 162 °C
3,CC1CCNC(=C2C(=O)CC(C)(C)CC2=O)N1 (stereo not drawn),164 to 165 °C
4,O=c1cc[nH]n1-c1c(Cl)cc(C(F)(F)F)cc1Cl,228 °C
5,OCc1nccn1CCc1ccccc1,75.4 °C
6,CCOC(=O)c1ccc(NC(=O)C=Cc2ccc(OC)cc2)cc1,163 to 166 °C
7,CC1(C)CC(=O)C(Cc2ccc(Cl)cc2)C(=O)C1,188 to 190 °C
8,COc1cc(NCCCCCCN2CCN(c3ccc(Cl)c(Cl)c3)CC2)c2nccc(C)c2c1,92 to 94 °C
9,CCOC(=O)c1cnc2n(c1=O)C(C)CCC2=NNc1ccc(Cl)cc1 (stereo not drawn),177 to 178 °C
10,CN1CCSC1=C[N+](=O)[O-],169 to 171 °C
11,COCCOc1ccc(CCNC(=O)/C=C/c2cccs2)cc1S(=O)(=O)NC(=S)NC(C)C,101 °C
12,CCCCCCCCCCCCC1=C(Br)C(=O)c2ccccc2C1=O,98 to 100 °C
13,Clc1cccc(Nc2nccc(-c3ccncc3)n2)c1,167 to 168 °C
14,CCCCOc1cc2ncnc(Nc3cccc(CC)c3)c2cc1OCCOC,90 to 92 °C
15,O=C(Nc1ccc(F)cc1F)c1cccc(Cl)n1,86 to 87 °C
16,CSC(=S)NN=Cc1nc(Cc2ccccc2)[nH]c1C,207 to 210 °C
17,CCCCNC(=O)Oc1ccc(Oc2ccc(OC)cc2)cc1,63 to 64 °C
18,O=S1(=O)c2cccc3cccc(c23)N1CCCCl,78 °C
19,Cn1c(CCl)cnc1[N+](=O)[O-],100 to 101 °C
20,COC(=O)C(=O)c1ccnc(NC=O)n1,143 to 144 °C
21,O=S(=O)(c1ccc(Cl)s1)N(CCO)CCO,69 °C
22,OCc1csc(NCc2ccccc2)n1,85 to 86.5 °C
23,CCCCCCCCCCCCCCCC(=O)Nc1cscc1NC(=O)CCCCCCCCCCCCCCC,107 to 109 °C

# The next lines start with the values.
row,melting point,SMILES
1,102 to 105 °C,O=C1N(Cn2nc3ccccc3n2)c2ccccc2C12COc1cc3c(cc12)CCO3 (stereo not drawn)
2,66 to 68 °C,COCCNCc1ccccc1Oc1ccc(-c2cn(C3CCOC3)c3ncnc(N)c23)cc1 (stereo not drawn)
3,97 to 100 °C,Cc1c(C(F)(F)F)nn(-c2c(Cl)cc(C(F)(F)F)cc2Cl)c1N
4,69 to 70 °C,FC(Sc1nnc(-c2ccc(Cl)cc2)s1)=C(F)C(F)(F)F
5,226 to 230 °C,CC(O)CNc1ccc(NC(=O)n2ccc3cc(Oc4cc(CC(N)=O)ncn4)ccc32)cc1C(F)(F)F (stereo not drawn)
6,267 to 268 °C,Cc1ccc(Cn2c(-c3ccc(C(O)(C(F)(F)F)C(F)(F)F)cc3)cc3ccccc3c2=O)cc1
7,160 to 164 °C,CCOC(=O)C(Cl)=Cc1cc(Cl)ccc1-n1c(=O)c(Cl)c(C(F)(F)F)n(C)c1=O
8,116 to 117 °C,COc1c(OCC(F)(F)C(F)(F)F)ccnc1CSc1nc2ccccc2[nH]1
9,176 to 177 °C,O=C(c1cccc(F)c1)N1Cc2c(-c3ccc(F)cc3)ncn2-c2ccccc21
10,135 to 137 °C,COc1cc(CC(=O)NCCCc2ccc(C)c(C)c2)ccc1OCCNC(=O)c1ccccc1OC(C)=O
11,214 to 215 °C,CC(=O)c1ccc(OC(=O)c2c3ccccc3nc3ccccc23)cc1
12,149 to 151 °C,Oc1cc(-c2c(F)c(F)c(F)c(F)c2F)nn1-c1ccccc1
13,178 to 179 °C,O=C(O)c1ccccc1OCCN1CCC(c2cn(Cc3ccc(Cl)s3)c3ccccc23)CC1
14,208 to 209 °C,CCOC(=O)c1ccc(COCc2csc3nc(C(=O)NCc4cccc(N(C)C(=O)C(F)(F)F)c4)[nH]c(=O)c23)cc1
15,224 to 225 °C,Cc1oc(-c2ccccc2)nc1CCC(=O)c1ccc(C=C2SC(=O)NC2=O)cc1
16,92 to 93 °C,COC(=O)[C@H](Cc1ccc(OCc2ccccc2)cc1)NC(=O)C(CSC(C)=O)Cc1ccccc1 (stereo partly drawn)
17,136 to 137 °C,Cc1cc(OCCO)c2ccccc2c1O
18,91 to 93 °C,CCCCc1nn(-c2ccccc2C(F)(F)F)c(=O)n1Cc1ccc(-c2ccccc2S(=O)(=O)NC(=O)c2ccccc2)cc1
19,184 to 185 °C,N#Cc1ccc(C2(COc3cccc4cc(NS(=O)(=O)C(F)(F)F)ccc34)N=CNO2)cc1 (stereo not drawn)
20,81 to 82 °C,Clc1ccc(-c2ccc(Br)cc2)cc1
21,42 to 43 °C,CC(=O)c1ccccc1Cc1ccccc1
22,171 to 173 °C,COc1ccc(Cl)cc1NC(=O)NCC(=O)c1ccccc1
23,188 to 190 °C,Cc1cc(=O)n(C)c2ccc(OCCCN3CCC(NC(=O)c4ccccc4)CC3)cc12
24,85 to 86 °C,COc1ccc(-c2nc(SCCCCCc3nc4ccccc4[nH]3)[nH]c2-c2ccc(OC)cc2)cc1
25,85 to 86 °C,O=CN(O)[C@@H](CCCO)CS(=O)(=O)c1ccc(Oc2ccc(OC(F)(F)F)cc2)cc1
26,121 to 123 °C,O=C(/C=C/c1ccc2ccccc2c1)N1CCOC1=O
